Patent publication US20090137643A1, “Methods for Inhibiting or Reversing Tau Filament Fibrillization” (priority 2003, published 2009)
“And” between values parts separate entries of the source, which are not always exact repeats. Equal entries are not always repeated. “Also recorded” adds a separate entry of the source. Where two headings read alike, the source gives them in different places.

Experiments:
Assay type in all cases: biochemical
amylin = biological target: T1, amylin (Homo sapiens, UniProt P10997); test: Amylin aggregation, qualitative electron microscopy; settings: amylin 50 μM, 4.1 μM N744, 24 hour period
T1 construct: purchased Bachem
T1 sequence (P10997 34-70 limits assumed): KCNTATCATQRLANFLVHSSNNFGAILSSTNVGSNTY
Experimental: Amylin Aggregation. Aggregation was initiated by diluting the peptide in 10 mM Tris-HCl, pH 7.3 to a final concentration of 50 μM (Goldsbury et al., J. Struct. Biol. 130: 352-362 (2000)) in the presence or absence of 4.1 μM N744. Aliquots were removed after 0, 1, 3, 5, 7, and 24 hours and prepared for EM as described above.
The activity of N744 on another amyloid-forming protein, amylin (Goldsbury et al., J. Struct. Biol. 130: 352-362 (2000)), was also examined.

Aβ1-40 = biological target: T2, Aβ1-40 (Homo sapiens, UniProt P05067); test: Aβ1-40 aggregation, turbidity at 400 nm; settings: Aβ1-40 20 μM, 4.1 μM N744, 5 hours
T2 construct: Human Aβ1-40 (Bachem; Philadelphia, Pa.); purchased Bachem
Experimental: Aβ1-40 Aggregation. Aggregation was initiated by diluting the Aβ stock solution to 20 μM final concentration in aggregation buffer (150 mM NaCl, 10 mM 2-[N-morpholino]ethanesulfonic acid, pH 6.2; final volume 300 μl). Turbidity resulting from Aβ aggregation in the presence (4.1 μM final concentration) and absence of […] was monitored as a function of time in a Beckman DU640B spectrophotometer at 400 nm versus a DMSO vehicle blank (Snyder et al., Biophys 67: 1216-1228 (1994); Evans et al., Proc. Natl. Acad. Sci U.S.A. 92: 763-767 (1995)). Cuvettes were vortexed before each reading. […] Selectivity of tau Fibrillization Antagonism. […] To determine whether amyloid binding was accompanied by fibrillization inhibitory activity, the ability of […] to inhibit Aβ1-40 assembly was examined. In the absence of ligand, Aβ1-40 (20 μM) polymerized spontaneously after a lag of about 80 minutes.

htau40 = biological target: T3, htau40 (Homo sapiens, UniProt P10636); test: Tau aggregation: arachidonic acid-induced htau40 fibrillization, quantitative transmission electron microscopy; set-up: IC50 for inhibition of tau fibrillization relative to molar concentration of arachidonic acid: unit not given here; settings: for filament length distribution versus DMSO vehicle control: 3 hours at 37° C.; for IC50: N744 0.12-4.1 μM
T3 construct: polyhistidine; made in house
Experimental: Tau Aggregation. Purified recombinant htau40 was polymerized as described previously (King et al., Biochemistry 38: 14851-14859 (1999); Wilson et al., Am. J. Pathol 150: 2181-2195 (1997); King et al., J. Neurochem 74: 1749-1757 (2000)). Under standard conditions, 4 μM (final concentration) htau40 was incubated with arachidonic acid in Assembly Buffer (10 mM 4-[2-hydroxyethyl]-1-piperazineethanesulfonic acid, 100 mM NaCl, and 5 mM DTT) at either room temperature or at 37° C. Fibrillization was induced by the addition of arachidonic acid (75-100 μM) and continued for 3 to 6 hours until analyzed by electron microscopy as described below. When present, N744 final concentration varied between 0.12 and 4.1 μM in aggregation assays. (N744 final concentration of up to 4.7 μM was used in disaggregation assays (see below)). Control reactions were normalized for DMSO vehicle, which was limited to no more than 5% (v/v) in all reactions.
(§1) Transmission Electron Microscopy. Aliquots (50 μl) of aggregation and disaggregation reactions were removed, fixed with glutaraldehyde (2%), and adsorbed (1 minute) onto 300 mesh formvar/carbon-coated copper grids (Electron Microscopy Sciences; Ft. Washington, Pa.). The resultant grids were washed with water, stained (1 minute) with 2% uranyl acetate (Electron Microscopy Sciences), washed again with water, blotted dry, and viewed in a Phillips CM 12 microscope operated at 65 kV. Three to five random images from each experimental condition were captured on film at 22,000× magnification, digitized, calibrated, and imported into Optimas 6.5.1 for quantitation of filament length and number as described previously (King et al., J. Neurochem 74: 1749-1757 (2000). An individual filament is defined as any object greater than 50 nm in its long axis. Filaments were counted manually. Filament counts are reported as an average±standard deviation for both total filament length and total filament number. Length distributions were quantified in 25 nm (assembly) or 50 nm (disassembly) wide bins.

htau40 filaments = biological target: T4, htau40 filaments (Homo sapiens, UniProt P10636); test: Tau disaggregation: preformed htau40 filaments, quantitative electron microscopy
T4 construct: polyhistidine; made in house
Experimental: Tau Disaggregation. Solutions of purified htau40 (4 μM) were polymerized under standard conditions as described above for 3.5 hours, then divided into two separate tubes. One tube received N744 at a final concentration of 4.7 μM, whereas the second tube received DMSO vehicle alone. Aliquots were removed from each sample after 0, 1, 3, 5, 9, 12, and 19 hours incubation and subjected to the electron microscopy assay described below. Control (no N744) reactions were normalized for DMSO vehicle, which was kept below 5.7% (v/v) in all reactions.
as §1
N744 Promotes tau Filament Disaggregation. […] To test this hypothesis, htau40 (4 μM) was polymerized with arachidonic acid (75 μM) over a 3.5 hour period after which time equal aliquots were treated with N744 (4.7 μM) or DMSO vehicle alone and filament numbers and lengths were measured over a 19 hour “chase” by electron microscopy. In the absence of N744, total htau40 filament length decreased 23±4% over this time period (FIG. 4). Because sample dilution was only 6% in the experimental paradigm, it appeared that DMSO alone destabilized tau filaments at these concentrations. In contrast, addition of N744 (4.7 μM) led to a more rapid decrease in total filament length so that 87±13% of total filament length was lost over the 19 hour time course. The initial rate of filament loss was well modeled as a first order decay (r^2=0.981; k=0.12±0.01 h^−1) under these conditions (FIG. 4).

[1] = htau40 4 μM, arachidonic acid 75 μM, 3.5 hours at 37° C.

T4 sequence (P10636 1-441 isoform P10636-8): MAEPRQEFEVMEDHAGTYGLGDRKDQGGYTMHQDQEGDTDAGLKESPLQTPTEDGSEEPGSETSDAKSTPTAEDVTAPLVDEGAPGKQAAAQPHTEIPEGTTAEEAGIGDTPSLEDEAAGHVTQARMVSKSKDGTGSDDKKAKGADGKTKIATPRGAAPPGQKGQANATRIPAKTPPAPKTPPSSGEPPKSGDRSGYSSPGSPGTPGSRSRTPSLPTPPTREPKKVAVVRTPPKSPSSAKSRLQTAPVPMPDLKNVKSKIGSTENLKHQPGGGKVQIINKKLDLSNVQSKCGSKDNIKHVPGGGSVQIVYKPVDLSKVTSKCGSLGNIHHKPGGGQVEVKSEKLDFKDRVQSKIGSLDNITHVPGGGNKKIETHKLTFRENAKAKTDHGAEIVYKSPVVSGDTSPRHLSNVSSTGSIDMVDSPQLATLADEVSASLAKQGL
T3 sequence (P10636 1-441 isoform P10636-8): as above
T2 sequence (P05067 672-711 limits assumed): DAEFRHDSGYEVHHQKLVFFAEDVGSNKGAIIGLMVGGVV

IC50 for inhibition of tau fibrillization relative to molar concentration of arachidonic acid (htau40): < 0.01
tau fibrillization (total number or total length of filaments) (htau40; 4.1 μM N744, about 1:1 with htau40 4 μM, arachidonic acid 75 μM): greatly inhibited
filament length distribution versus DMSO vehicle control (htau40; N744 ≧1.2 μM, htau40 4 μM): significant shortening
Hill slope, total filament length (htau40; [1]): 1.84±0.14
Hill slope, total filament number (htau40; [1]): 1.61±0.10
IC50 (htau40; htau40 4 μM, arachidonic acid 75 μM, 3.5 hours at 37° C., read-out: IC50, inhibition of total filament length): 294 nM and < 300 nM and ~300 nM
IC50 (htau40; htau40 4 μM, arachidonic acid 75 μM, 3.5 hours at 37° C., read-out: IC50, inhibition of total filament number): 272 ± 17 nM
filament length distribution versus DMSO vehicle control (htau40; low N744 concentrations (≦410 nM), htau40 4 μM): did not differ significantly
net first order rate of filament loss, corrected for dilution and DMSO vehicle (htau40 filaments; 4.7 μM N744, htau40 4 μM): 0.10 ± 0.02 h⁻¹
initial first order rate of decrease of total filament length (htau40 filaments; 4.7 μM N744 added to filaments from htau40 4 μM, 19 hour chase): 0.12 ± 0.01 h⁻¹
total filament length as % of vehicle only control (htau40 filaments; after 19 hours incubation with 4.7 μM N744): 13±2%
total filament length lost (htau40 filaments; over 19 hour time course, 4.7 μM N744): 87±13%
SMILES: CCC(/C=C1\Sc2ccc(OC)cc2N1CCO)=C\c1sc2ccc(OC)cc2[n+]1CCO [N744, 3-(2-hydroxyethyl)-2-[2-[[3-(2-hydroxyethyl)-5-methoxy-2-benzothiazolylidene]methyl]-1-butenyl]-5-methoxybenzothiazolium]
effect on amylin fibrillization (amylin): did not interfere; also recorded: did not modulate
effect on Aβ1-40 fibrillization (Aβ1-40): did not appreciably modulate the extent or half-life; also recorded: little effect
filament number per length bin relative to DMSO only control (htau40 filaments; 19 hours, 4.7 μM N744, 50 nm bins): significantly fewer filaments in every bin
